Measured values: ChEMBL document CHEMBL4339254, “Lamellarin Sulfates from the Pacific Tunicate Didemnum ternerratum” (J Nat Prod, 2019)

system: HCT-116; test: Cytotoxicity in human HCT116 cells assessed as reduction in cell viability incubated for 48 hrs by MTS assay; type: functional, cell-based; conditions: Homo sapiens, HCT-116, 48 h; read-out: IC50

Row | SMILES | IC50 [µM]
1 | COc1cc(-c2c3n(c4c(=O)oc5cc(O)c(OC)cc5c24)CCc2c-3cc(OC)c(OC)c2O)ccc1O | 4.3
2 | COc1cc(-c2c3c4cc(OC)c(O)cc4oc(=O)c3n3ccc4cc(OS(=O)(=O)O)c(OC)cc4c23)ccc1O | 9.7

same assay, conditions: hct-116

Row | SMILES | IC50
3 | COc1cc(-c2c3c4cc(OC)c(OS(=O)(=O)O)cc4oc(=O)c3n3ccc4cc(OC)c(OC)cc4c23)ccc1O | Not Active
4 | COc1ccc(-c2c3n(c4c(=O)oc5cc(OS(=O)(=O)O)c(OC)cc5c24)CCc2c-3cc(OC)c(OC)c2O)cc1O | Not Active
5 | COc1cc(-c2c3n(c4c(=O)oc5cc(OS(=O)(=O)O)c(OC)cc5c24)CCc2c-3cc(OC)c(OC)c2O)ccc1O | Not Active
6 | COc1ccc(-c2c3n(c4c(=O)oc5cc(OS(=O)(=O)O)c(O)cc5c24)CCc2cc(OC)c(O)cc2-3)cc1O | Not Active
7 | COc1cc(-c2c3n(c4c(=O)oc5cc(OS(=O)(=O)O)c(OC)cc5c24)CCc2cc(OC)c(OC)cc2-3)ccc1O | Not Active
